Assays:
[1] = system: U937 cells; experiment: U937 cytotox assay; format: cell-based; details: Homo sapiens, U-937, without huTNFα and zVAD-fmk, read-out: U937 TOX IC50
Experimental: (§1) MLKL antagonists were also evaluated in a necroptosis assay with U937 cells ([26]) (ATCC catalog no. CRL-1593.2). The assay procedure with U937 cells was as described for the Jurakt FADD^−/− necroptosis assay with the following modifications: 8,000 cells were seeded per well, and, in addition to the recombinant huTNFα, cells were also incubated in the presence of 10 µM (f.c.) carbobenzoxy-valyl-alanyl-aspartyl-[O-methyl]-fluoromethylketone (zVAD-fmk) (Enzo Life Sciences catalog no. ALX-260-020). Low controls (0% CTL) were defined as cells treated with 100 ng/mL recombinant huTNFα plus 10 µM zVAD-fmk.
(§2) MLKL antagonists were tested in cytotox assays by using Jurkat FADD^−/− and U937 cells according to the assay procedures described for the necroptosis assays, but without treatment with recombinant huTNFα and/or zVAD-fmk. High controls (100% CTL, no effect) were defined as cells treated with DMSO, and low controls (0% CTL) were defined as medium without cells (0% CTL, maximal effect).
(§3) All cellular assays were done for Cpd 1, Cpd 2, Cpd 3, Cpd 4, and Cpd 5 in duplicate and in quadruplet for NSA.

[2] = system: Jurkat FADD−/− cells; experiment: Jurkat FADD−/− cytotox assay; format: cell-based; details: Homo sapiens, without huTNFα, Cell Titer Glo viability, read-out: Jurkat TOX IC50
Experimental: (§4) For the Jurkat FADD^−/− Necroptosis assay, compounds were serially diluted in 100% dimethyl sulfoxide (DMSO) (Sigma-Aldrich catalog no. 41641), and 250 nL was transferred to a sterile 384-well microtiter plate (PerkinElmer catalog no. 6007688) via Echo liquid handler (LABCYTE). Five thousand Jurkat FADD ^−/− cells (ATCC catalog no. CRL-2572) in 20 µL of modified Roswell Park Memorial Institute medium (Gibco catalog no. 10491), 10% fetal calf serum (Gibco catalog no. 100500), 1x Anti/Anti (Gibco catalog no. 15240-062), 1x L-Glutamax (Gibco catalog no. 35050-087), and 1% PenStrep (SIGMA catalog no. P4333) were seeded into each well of the prepared assay plate with compound. Cells and compounds were incubated for 30 min at 37 °C (humidified incubator with 5% CO2). After incubation, 5 µL of recombinant human TNFα (huTNFα) (Biotrend catalog no. cyt-223; 10 ng/mL final concentration [f.c.]) was added to the cells, followed by an incubation of 24 h at 37 °C. Following the incubation, the experimental plates were equilibrated to room temperature (30 min) before 25 µL of Cell Titer Glo Luminescent Cell Viability Assay System reagent (Promega catalog no. G7571) was added to the plate wells, incubated at room temperature for ∼10 min. After incubation, the samples were analyzed for luminescence by using an Envision reader (PerkinElmer).
as §2, §3

[3] = target: T1, MLKL executioner domain (Homo sapiens, UniProt Q8NB16); experiment: Real-time NMR of MLKL oligomerization; format: biochemical; details: after 48 h, 50 µM IP6, 12 mM NM, 500 µM Cpd 3, 300 µM MLKL, 298 K
T1 construct: 80 µM MLKL N-terminal executioner domain (residues 1 to 154) was used; GST (thrombin cleavage site) (cleaved yes)
T1 sequence (Q8NB16 1-154): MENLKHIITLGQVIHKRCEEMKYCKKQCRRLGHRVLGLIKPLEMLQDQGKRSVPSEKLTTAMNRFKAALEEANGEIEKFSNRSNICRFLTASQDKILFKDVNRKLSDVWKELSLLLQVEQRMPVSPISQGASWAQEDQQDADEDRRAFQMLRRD
Experimental: While MLKL was stable in the presence of either 500 µM IP6 or 12 mM NM (SI Appendix, Fig. S13), dispersed peaks were disappearing over time in the presence of the combination of the two. Monitoring this decay by real-time NMR, a series of ^1H,^15N-correlation spectra were recorded in the presence of 12 mM NM and 50 µM IP6. The latter concentration was reduced to slow down the process to enable real-time NMR detection, because at 500 µM IP6 concentration, 86% activation could be observed in the functional assay in the ^1H,^15N-correlation spectrum measured directly after sample preparation. The loss of peak intensity can be fitted with a biexponential decay with a fast time constant (Tf) of 0.35 ± 0.07 h and a slow time constant (Ts) of 10.0 ± 1.0 h. […] In addition to the known peaks reporting on the active state with α-helix 6 being detached (Ala141 N,H and Trp133 Nε1,Hε1), peaks in the random coil region of the spectrum appeared (Fig. 4A). […] Secondary chemical shifts confirmed that α-helix 6 becomes largely unfolded and has, according to ^15N-relaxation data, increased mobility (τC = 10 ns) and reduced rigidity (heteronuclear NOE around zero) in the activated state (SI Appendix, Fig. S10).
After 48 h, these signals decayed only to ∼70% intensity. Cross-peaks reporting on the unfolded, detached α-helix 6 likewise appeared more slowly in the presence of Cpd 3 (Fig. 4 B–D). […]

[4] = system: U937 cells; experiment: U937 necroptosis assay; format: cell-based; details: Homo sapiens, U-937, huTNFα plus 10 µM zVAD-fmk, read-out: U937 NEC IC50
Experimental: as §4
Each assay plate contained wells with “high” and “low” controls. High controls (100% CTL) were defined as cells treated with DMSO, and low controls (0% CTL) were defined as cells treated with 10 ng/mL recombinant huTNFα. IC50 values were calculated based on the percentage of control values using a four-parameter-fitting model.
as §1, §3

Cn1c(=O)c2c(nc(S(C)(=O)=O)n2C)n(CC#Cc2cccc(O)c2)c1=O [Cpd 3]
IC50 [1]: 25.5 µM
IC50 [2]: 13.6 µM
Remaining intensity of dispersed signals [3]: ~70%
IC50 [4]: 0.271 µM
